pIC50: −log10 of the molar value.
Target: T1, human DGAT1 (Homo sapiens, UniProt O75907)
T1 construct: made in house; host or cells: Sf9 insect cells (microsomes)
T1 sequence (O75907 1-488): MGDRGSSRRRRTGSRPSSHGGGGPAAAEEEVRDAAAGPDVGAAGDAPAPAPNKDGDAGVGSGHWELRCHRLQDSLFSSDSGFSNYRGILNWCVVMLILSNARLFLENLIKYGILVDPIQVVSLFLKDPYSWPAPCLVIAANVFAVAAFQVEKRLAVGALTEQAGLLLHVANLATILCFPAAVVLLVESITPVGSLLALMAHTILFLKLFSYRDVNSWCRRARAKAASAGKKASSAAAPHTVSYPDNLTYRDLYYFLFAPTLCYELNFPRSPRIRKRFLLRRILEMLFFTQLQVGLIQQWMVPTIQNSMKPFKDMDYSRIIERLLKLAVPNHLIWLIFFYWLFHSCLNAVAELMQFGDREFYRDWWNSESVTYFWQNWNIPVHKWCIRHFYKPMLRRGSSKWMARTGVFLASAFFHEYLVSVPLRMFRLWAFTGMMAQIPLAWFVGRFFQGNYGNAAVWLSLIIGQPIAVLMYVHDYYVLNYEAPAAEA
Assay: in vitro DGAT1 inhibition assay (microsomes, [14C]-palmitoyl-CoA, wheat germ agglutinin beads)
Format: biochemical
Conditions: human DGAT1 enzyme expressed in Sf9 insect cells, 2 hours at room temperature
Method: The assay used to determine the DGAT inhibitory activity of the inventive compounds is described below:
The in vitro assay to identify DGAT1 inhibitors uses human DGAT1 enzyme expressed in Sf9 insect cells prepared as microsomes. The reaction was initiated by the addition of the combined substrates 1,2-dioleoyl-sn-glycerol and [^14C]-palmitoyl-CoA and incubated with test compounds and microsomal membranes for 2 hours at room temperature. The assay was stopped by adding 0.5 mg wheat germ agglutinin beads in assay buffer with 1% Brij-35 and 1% 3-cholamidopropyldimethyl-ammonio-1-propane sulfonate. Plates were sealed with TopSeal and incubated for 18 hours to allow the radioactive triglyceride product to come into proximity with the bead. Plates were read on a TopCount instrument.
Percent inhibition was calculated as the percent of (test compound inhibition minus non-specific binding) relative to (total binding minus non-specific binding). IC50 values were determined by curve fitting the data to a Sigmoidal dose-response in GraphPad Prism utilizing the following equation:
Y=A+(B−A)/(1+10̂((LogIC50−X))),
where A and B are the bottom and top of the curve (highest and lowest inhibition), respectively, and X is the logarithm of concentration.

Structure (SMILES)	pIC50
CCCCCCCNC(=O)N1CC(C)Oc2cc(-c3ccc([C@H]4CC[C@H](CC(=O)O)CC4)cc3)ccc21 (stereo partly shown) [Example C-116, 2-((1r,4r)-4-(4-(4-(heptylcarbamoyl)-2-methyl-3,4-dihydro-2H-benzo[b][1,4]oxazin-7-yl)phenyl)cyclohexyl)acetic acid]	7.15
CCCCCCNC(=O)N1CC(C)Oc2cc(-c3ccc([C@H]4CC[C@H](CC(=O)O)CC4)cc3)ccc21 (stereo partly shown) [Example C-113, 2-((1r,4r)-4-(4-(4-(hexylcarbamoyl)-2-methyl-3,4-dihydro-2H-benzo[b][1,4]oxazin-7-yl)phenyl)cyclohexyl)acetic acid]	7.09
O=C(O)C[C@H]1CC[C@H](c2ccc(-c3ccc4c(C(=O)Nc5ccccc5)ccnc4c3)cc2)CC1 [Example B-48, 2-((1r,4r)-4-(4-(4-(phenylcarbamoyl)quinolin-7-yl)phenyl)cyclohexyl)acetic acid]	7.08
CCCCCCCNC(=O)N1CC(CC)Oc2cc(-c3ccc([C@H]4CC[C@H](CC(=O)O)CC4)cc3)ccc21 (stereo partly shown) [Example C-150, 2-((1r,4r)-4-(4-(2-ethyl-4-(heptylcarbamoyl)-3,4-dihydro-2H-benzo[b][1,4]oxazin-7-yl)phenyl)cyclohexyl)acetic acid]	7.08
CCCc1ccccc1NC(=O)c1ccnc2cc(-c3ccc([C@H]4CC[C@H](CC(=O)O)CC4)cc3)ccc12 [Example C-129, 2-((1r,4r)-4-(4-(4-(2-propylphenylcarbamoyl)quinolin-7-yl)phenyl)cyclohexyl)acetic acid]	7.03
CC(C)c1ccccc1NC(=O)c1ccnc2cc(-c3ccc([C@H]4CC[C@H](CC(=O)O)CC4)cc3)ccc12 [Example C-125, 2-((1r,4r)-4-(4-(4-(2-isopropylphenylcarbamoyl)quinolin-7-yl)phenyl)cyclohexyl)acetic acid]	7.14
CC1CN(C(=O)Nc2ccc(F)cc2C(F)(F)F)c2ccc(-c3ccc([C@H]4CC[C@H](CC(=O)O)CC4)cc3)cc2O1 (single isomer, unassigned) [C-78 enantiomer A, 2-((1r,4r)-4-(4-(4-(4-fluoro-2-(trifluoromethyl)phenylcarbamoyl)-2-methyl-3,4-dihydro-2H-benzo[b][1,4]oxazin-7-yl)phenyl)cyclohexyl)acetic acid]	7.10

Now those with a higher pIC50, led by results:

pIC50	Structure (SMILES)
7.21	Cc1cc(C(=O)NCCc2ccccc2)c2ccc(-c3ccc([C@H]4CC[C@H](CC(=O)O)CC4)cc3)cc2n1 [Example C-139, 2-((1r,4r)-4-(4-(2-methyl-4-(phenethylcarbamoyl)quinolin-7-yl)phenyl)cyclohexyl)acetic acid]
7.24	CCc1ccccc1NC(=O)N1C[C@@H](C)Oc2cc(-c3ccc([C@H]4CC[C@H](CC(=O)O)CC4)cc3)ccc21 [C-81 enantiomer A, 2-((1r,4r)-4-(4-(4-(2-ethylphenylcarbamoyl)-2-methyl-3,4-dihydro-2H-benzo[b][1,4]oxazin-7-yl)phenyl)cyclohexyl)acetic acid]
7.37	C[C@@H]1CN(C(=O)Nc2ccccc2)c2ccc(-c3ccc([C@H]4CC[C@H](CC(=O)O)CC4)cc3)cc2O1 [B-18 enantiomer A, 2-((1r,4r)-4-(4-(2-methyl-4-(phenylcarbamoyl)-3,4-dihydro-2H-benzo[b][1,4]oxazin-7-yl)phenyl)cyclohexyl)acetic acid]
7.55	Cc1cc(C(=O)Nc2ccccc2)c2ccc(-c3ccc([C@H]4CC[C@H](CC(=O)O)CC4)cc3)cc2n1 [Example C-134, 2-((1r,4r)-4-(4-(2-methyl-4-(phenylcarbamoyl)quinolin-7-yl)phenyl)cyclohexyl)acetic acid]
7.70	O=C(O)C[C@H]1CC[C@H](c2ccc(-c3ccc4c(c3)OCCN4C(=O)Nc3ccc(F)cc3C(F)(F)F)cc2)CC1 [Example C-6, 2-((1r,4r)-4-(4-(4-(4-fluoro-2-(trifluoromethyl)phenylcarbamoyl)-3,4-dihydro-2H-benzo[b][1,4]oxazin-7-yl)phenyl)cyclohexyl)acetic acid]
7.82	Cc1cc(C(=O)NCCCCc2ccccc2)c2ccc(-c3ccc([C@H]4CC[C@H](CC(=O)O)CC4)cc3)cc2n1 [Example C-141, 2-((1r,4r)-4-(4-(2-methyl-4-(4-phenylbutylcarbamoyl)quinolin-7-yl)phenyl)cyclohexyl)acetic acid]
